Test results taken from DBAASP.
Converted amounts (≈) assume the structure as drawn. Each block holds one compound with its values, some of them ahead of it.

Tests used:
Assay in all cases: ≥ marks a high value that may be exact or a test limit, other limits are often not marked, values filed in µg/mL are converted to µM
[1] = tested on: Proteus mirabilis ATCC 35659
[2] = tested on: Enterococcus faecalis A4
[3] = tested on: Bacillus licheniformis ATCC 14580
[4] = tested on: Bacillus cereus ATCC 14579
[5] = tested on: Bacillus amyloliquefaciens ATCC 23842
[6] = tested on: Bacillus subtilis ATCC 6051
[7] = tested on: Pseudomonas aeruginosa PAO1
[8] = tested on: Staphylococcus aureus 215
[9] = tested on: Staphylococcus aureus ATCC 29213
[10] = tested on: Enterococcus faecium 5F-10
[11] = tested on: Salmonella enterica ATCC H9812
[12] = tested on: Escherichia coli ATCC 25922
[13] = tested on: Enterococcus faecium 4W-9
[14] = tested on: Staphylococcus aureus MR
[15] = tested on: Enterococcus faecalis 1F-1
[16] = tested on: Klebsiella pneumoniae E406-17
[17] = tested on: Pseudomonas aeruginosa E411-17
[18] = tested on: Klebsiella pneumoniae ATCC 13883
[19] = tested on: Staphylococcus aureus M838-17
[20] = tested on: Staphylococcus aureus JE2
[21] = tested on: Enterococcus faecium V286-17
[22] = tested on: Escherichia coli E416-7
[23] = tested on: Staphylococcus aureus
[24] = tested on: Bacillus subtilis 168
[25] = tested on: Escherichia coli ESBL
[26] = tested on: Escherichia coli BL21
[27] = tested on: Staphylococcus aureus ATCC BAA-41
[28] = tested on: Staphylococcus aureus ATCC 33591
[29] = tested on: Staphylococcus aureus ATCC 43300
[30] = tested on: Enterococcus faecium ATCC BAA-2316
[31] = tested on: Staphylococcus epidermidis ATCC 12228
[32] = tested on: Pseudomonas aeruginosa ATCC BAA-2114
[33] = tested on: Escherichia coli ATCC 35218
[34] = tested on: Escherichia coli C25
[35] = tested on: Staphylococcus aureus ATCC 25923
[36] = tested on: Escherichia coli JW0368 ΔsbmA
[37] = tested on: Escherichia coli JJ2489
[38] = tested on: Escherichia coli MC1041
[39] = tested on: Escherichia coli J2210
[40] = tested on: Salmonella typhimurium SL1344
[41] = tested on: Escherichia coli JW0013
[42] = tested on: Escherichia coli JW2778 ΔygdD
[43] = tested on: Escherichia coli BW25113
[44] = tested on: Salmonella enterica subsp. enterica serovar Enteritidis MH91989
[45] = tested on: Streptococcus mutans ATCC UA159
[46] = tested on: Staphylococcus aureus ATCC 8325-4
[47] = tested on: Staphylococcus aureus ATCC 6538
[48] = tested on: Streptococcus sanguinis ATCC 10556
[49] = tested on: Candida albicans ATCC 5314

- MIC [1]: ≥ 154 µM
- MIC [2]: ≥ 154 µM
- MIC [3]: ≥ 154 µM
- MIC [4]: ≥ 154 µM
- MIC [5]: ≥ 154 µM
- MIC [6]: ≥ 154 µM
- MIC [7]: 154 µM (≈ 134 µg/mL)
- MIC [8]: ≥ 38.6 µM
- MIC [9]: 38.6 µM (≈ 33.6 µg/mL)
- MIC [10]: ≥ 154 µM
- MIC [11]: ≥ 154 µM
- MIC [12]: 77.1 µM (≈ 67.2 µg/mL)
- MIC [13]: ≥ 154 µM
- MIC [14]: ≥ 38.6 µM
- MIC [15]: ≥ 154 µM
Compound: CC(=O)N[C@@H](CCC(=O)O)C(=O)N[C@@H](CC(C)C)C(=O)N[C@@H](CC(C)C)C(=O)N[C@@H](CO)C(=O)N[C@@H](CCCN=C(N)N)C(=O)N[C@H](C(=O)N[C@@H](CC(N)=O)C(=O)O)C(C)C [ELLSRVN]

- MIC [16]: ≥ 50 µM
- MIC [17]: ≥ 50 µM
- MIC [18]: 25 µM (≈ 33.5 µg/mL)
- MIC [7]: > 25 µM
- MIC [19]: 3.1 µM (≈ 4.15 µg/mL)
- MIC [12]: > 25 µM
- MIC [20]: 1.56 µM (≈ 2.09 µg/mL)
- MIC [21]: 4.4 µM (≈ 5.89 µg/mL)
- MIC [22]: ≥ 50 µM
Compound: CC(C)C[C@H](NC(=O)[C@H](CC(C)C)NC(=O)[C@H](CCCCN)NC(=O)[C@H](CC(C)C)NC(=O)CNC(=O)[C@H](CC(C)C)NC(=O)[C@H](CO)NC(=O)[C@H](CC(C)C)NC(=O)[C@H](CC(C)C)NC(=O)[C@H](CC(C)C)NC(=O)[C@H](CO)NC(=O)[C@H](CC(C)C)NC(=O)CN)C(N)=O [GLSLLLSLGLKLL]

- MIC [23]: 7.5 µM (≈ 11.8 µg/mL)
- MIC [24]: 5 µM (≈ 7.89 µg/mL)
- MIC [25]: 12 µM (≈ 18.9 µg/mL)
- MIC [26]: 2.5 µM (≈ 3.95 µg/mL)
Compound: CC[C@H](C)[C@H](N)C(=O)N[C@H](C(=O)N[C@@H](CCCCN)C(=O)N[C@@H](CCCCN)C(=O)N[C@H](C(=O)N[C@H](C(=O)N[C@@H](CCCCN)C(=O)N[C@@H](CCCCN)C(=O)N[C@H](C(=O)N[C@H](C(=O)N[C@@H](CCCCN)C(=O)N[C@@H](CCCCN)C(=O)N[C@H](C(N)=O)[C@@H](C)CC)[C@@H](C)CC)[C@@H](C)CC)[C@@H](C)CC)[C@@H](C)CC)[C@@H](C)CC [IIKKIIKKIIKKI]

- MIC [27]: 20 µM (≈ 63.3 µg/mL)
- MIC [28]: 20 µM (≈ 63.3 µg/mL)
- MIC [29]: 20 µM (≈ 63.3 µg/mL)
- MIC [9]: 20 µM (≈ 63.3 µg/mL)
- MIC [30]: 20 µM (≈ 63.3 µg/mL)
- MIC [12]: 20 µM (≈ 63.3 µg/mL)
- MIC [31]: 20 µM (≈ 63.3 µg/mL)
- MIC [32]: 10 µM (≈ 31.6 µg/mL)
- MIC [33]: 20 µM (≈ 63.3 µg/mL)
Compound: CC[C@H](C)[C@H](NC(=O)[C@H](CCCN=C(N)N)NC(=O)[C@H](CCC(N)=O)NC(=O)[C@@H](NC(=O)[C@@H](NC(=O)[C@H](CCCN=C(N)N)NC(=O)[C@H](CCCCN)NC(=O)[C@H](Cc1ccccc1)NC(=O)[C@@H](NC(=O)[C@@H]1CCCN1C(=O)[C@H](CO)NC(=O)[C@H](CC(C)C)NC(=O)[C@H](CCCCN)NC(=O)[C@H](CCCCN)NC(=O)[C@H](Cc1ccccc1)NC(=O)[C@H](CC(C)C)NC(=O)[C@H](CCCCN)NC(=O)[C@H](CCCCN)NC(=O)[C@H](Cc1ccccc1)NC(=O)[C@@H](N)CCCCN)C(C)C)[C@@H](C)CC)C(C)C)C(=O)N[C@@H](CCCCN)C(=O)N[C@@H](CC(=O)O)C(=O)N[C@@H](Cc1ccccc1)C(=O)N[C@@H](CC(C)C)C(=O)N[C@@H](CCCN=C(N)N)C(=O)O [KFKKLFKKLSPVFKRIVQRIKDFLR]

- MIC [34]: 8.5 µM (≈ 13.1 µg/mL)
- MIC [35]: 17 µM (≈ 26.2 µg/mL)
Compound: CC[C@H](C)[C@H](NC(=O)CNC(=O)[C@H](CCCN=C(N)N)NC(=O)[C@H](Cc1ccc(O)cc1)NC(=O)[C@@H](NC(=O)[C@H](CCCN=C(N)N)NC(=O)[C@H](Cc1ccccc1)NC(=O)[C@H](Cc1c[nH]c2ccccc12)NC(=O)[C@@H](N)CCCCN)C(C)C)C(=O)N[C@@H](Cc1ccc(O)cc1)C(=O)N[C@@H](CCCN=C(N)N)C(N)=O [KWFRVYRGIYR]

- MIC [36]: 0.06 µM (≈ 0.123 µg/mL)
- MIC [37]: 0.12 µM (≈ 0.246 µg/mL)
- MIC [38]: 0.06 µM (≈ 0.123 µg/mL)
- MIC [39]: 0.167 µM (≈ 0.343 µg/mL)
- MIC [40]: 0.12 µM (≈ 0.246 µg/mL)
- MIC [41]: 0.06 µM (≈ 0.123 µg/mL)
- MIC [42]: 0.12 µM (≈ 0.246 µg/mL)
- MIC [43]: 0.078 µM (≈ 0.16 µg/mL)
- MIC [44]: 0.167 µM (≈ 0.343 µg/mL)
Compound: CC[C@H](C)[C@H](NC(=O)[C@H](CCCN=C(N)N)NC(=O)[C@@H](N)CCCN=C(N)N)C(=O)N[C@@H](CCCCN)C(=O)N[C@@H](CCCCN)C(=O)N[C@@H](CCCN=C(N)N)C(=O)N1CCC[C@H]1C(=O)N1CCC[C@H]1C(=O)N[C@@H](CCCN=C(N)N)C(=O)N[C@@H](CC(C)C)C(=O)N1CCC[C@H]1C(=O)N[C@@H](CCCN=C(N)N)C(=O)N1CCC[C@H]1C(=O)N[C@@H](CCCN=C(N)N)C(=O)N1CCC[C@H]1C(=O)N[C@@H](CCCCN)C(=O)O [RRIKKRPPRLPRPRPK]

- MIC [45]: 25 µM (≈ 64 µg/mL)
- MIC [46]: 6.25 µM (≈ 16 µg/mL)
- MIC [23]: 6.25 µM (≈ 16 µg/mL)
- MIC [9]: 12.5 µM (≈ 32 µg/mL)
- MIC [14]: 12.5 µM (≈ 32 µg/mL)
- MIC [47]: 12.5 µM (≈ 32 µg/mL)
- MIC [35]: 12.5 µM (≈ 32 µg/mL)
- MIC [48]: 25 µM (≈ 64 µg/mL)
- MIC [49]: 25 µM (≈ 64 µg/mL)
Compound: CC[C@H](C)[C@H](NC(=O)[C@H](CCCCN)NC(=O)[C@H](CCCN=C(N)N)NC(=O)[C@H](CCC(=O)O)NC(=O)[C@H](Cc1ccc(O)cc1)NC(=O)[C@@H](N)CO)C(=O)N[C@@H](CC(N)=O)C(=O)N[C@@H](CCCN=C(N)N)C(=O)N[C@@H](Cc1cnc[nH]1)C(=O)N[C@@H](Cc1ccccc1)C(=O)N[C@@H](CCCCN)C(=O)N[C@H](C(=O)N[C@@H](CC(C)C)C(=O)N[C@@H](CCCCN)C(=O)N[C@@H](CCCCN)C(=O)N[C@@H](CC(N)=O)C(=O)N[C@@H](CC(C)C)C(=O)N[C@@H](CCCCN)C(=O)N[C@@H](CCCCN)C(=O)N[C@@H](CCCCN)C(N)=O)[C@@H](C)O [SYERKINRHFKTLKKNLKKK]
